Each block holds one molecule with its values, some of them ahead of it.
Key:
[1] = molecular target: T1, Homoserine dehydrogenase (StHSD) (Sulfurisphaera tokodaii, UniProt F9VNG5); assay: initial velocity and product inhibition kinetics of NAD-dependent oxidation by purified enzyme; type: biochemical
T1 construct: gene hom

[2] = molecular target: T1, Homoserine dehydrogenase (StHSD); assay: crystal structure with cysteine at […] Å; steady-state kinetics (apparent Km); type: biochemical; conditions: cited from earlier work
[3] = molecular target: T1, Homoserine dehydrogenase (StHSD); assay: product inhibition kinetics of homoserine oxidation (double reciprocal plots); type: biochemical
[4] = molecular target: T1, Homoserine dehydrogenase (StHSD); assay: crystal structure with NAD at […] Å; Ki from Dixon plots of homoserine oxidation by purified enzyme; difference UV spectrum; type: biochemical
[5] = substrate: NC(=O)c1ccc[n+]([C@@H]2O[C@H](COP(=O)([O-])OP(=O)(O)OC[C@H]3O[C@@H](n4cnc5c(N)ncnc54)[C@H](OP(=O)(O)O)[C@@H]3O)[C@@H](O)[C@H]2O)c1; assay: steady-state kinetics of purified enzyme (apparent Km); type: biochemical, Sulfurisphaera tokodaii; conditions: Phe49 could exclude the C2′ phosphate group of NADP; varied: cofactor

Molecule: N[C@@H](CCO)C(=O)O [homoserine]
initial velocity and product inhibition kinetics of NAD-dependent oxidation by p [1]: NAD binds to the free form of the enzyme, after which homoserine binds to the enzyme-NAD complex

Molecule: NC(=O)c1ccc[n+]([C@@H]2O[C@H](COP(=O)([O-])OP(=O)(O)OC[C@H]3O[C@@H](n4cnc5c(N)ncnc54)[C@H](O)[C@@H]3O)[C@@H](O)[C@H]2O)c1 [NAD]
Km [2]: 330 µM

Molecule: NC(=O)C1=CN([C@@H]2O[C@H](COP(=O)(O)OP(=O)(O)OC[C@H]3O[C@@H](n4cnc5c(N)ncnc54)[C@H](O)[C@@H]3O)[C@@H](O)[C@H]2O)C=CC1 [NADH]
product inhibition kinetics of homoserine oxidation (double reciprocal plots) [3]: which suggests that NADH acts as a competitive inhibitor of NAD

Ki [4]: 11 µM
Molecule: N[C@@H](CS)C(=O)O [cysteine]

B1: Homoserine dehydrogenase (StHSD) (Sulfurisphaera tokodaii str. 7) (protein)
chain: MKLLLFGYGNVGKAFRKLLHEKRSPELNDVIIGGIVTRRGIMLQDKEDFTPDLEGDVFKAFEKIKPDIIVDVSSANYNNGEPSLSLYKEAIKDGVNIITTNKAPLALAFNEIFSLARSKGVKIGFQGTVMSGTPSINLYRVLPGSRVIKIRGILNGTTNFILTLMNKGVSFEEALKEAQRRGYAEEDPTLDINGFDAAAKITILANFMIGNSVTIKDVKFEGINRDLPKNEKIKLIAYADEKEVWVKPLPISQDDPLYNVDGVENALEITTDIQSILIRGPGAGPVNAAYGALSDLILLKRDCL
Km [5]: 1200 µM

Source: paper PMC5893615, “Inhibition of homoserine dehydrogenase by formation of a cysteine-NAD covalent complex” (Scientific Reports, 2018)
